Results: patent US20250084084A1, “Crystalline form of (2R)-2-(5-fluoro-2-methoxypyridin-4-yl)-1-[(2S)-7-methyl-6-(pyrimidin-2-yl)-3,4-dihydro-1H-spiro[1,8-naphthyridine-2,3-pyrrolidin]-1-yl]propan-1-one” (Pfizer Inc., priority 2020, published 2025)

biological target: α-melanocyte-stimulating hormone receptor (hMC4R) (Homo sapiens (Human), UniProt P32245); experiment: In vitro binding affinity assay using hMC4R (radioligand competition binding, [125I]-(Nle4, D-Phe7)-α-MSH); settings: geometric mean, read-out: Ki (nM) geometric
Protocol: The binding affinity of test compounds at the α-melanocyte-stimulating hormone receptor (hMC4R) was assessed using a radioligand competition binding assay. Recombinant Chinese hamster ovaries (CHO) cells stably expressing hMC4R (PerkinElmer #ES-191-C) were used for competitive binding. hMC4R membranes were grown in Dulbecco's Modified Essential Medium and Ham's F-12 Medium (DMEM/F12), 10% heat inactivated fetal bovine serum (FBS), 0.4 mg/mL Geneticin and 2 mM L-glutamine. Cell membranes were bulked and frozen until the assay was performed.
Compounds were solubilized in 100% dimethyl sulfoxide (DMSO) to a concentration of 30 mM. A 10-point intermediate dilution series using half log dilutions was created in 100% DMSO with a top concentration of 0.03 mM. The serially diluted compounds were spotted as 1 μL/well, in 96-well Costar 3363 plates. The final compound range in the assay was 300 nM to 0.01 nM with a final DMSO concentration of 1%. Control wells, containing 1 μL of 2 mM ([…]) alpha-melanocyte stimulating hormone (α-MSH-Tocris #2584) was added to the non-specific binding wells and 1 μL 100% DMSO for the total binding control wells. […] The exact concentration of radioligand used for each experiment was determined by liquid scintillation counting and adjusted if necessary.
Frozen hMC4R cell membranes were thawed and Dounce homogenized. Homogenates were resuspended in assay buffer to a concentration of 2 μg per well. […] The plates were incubated for 2 hours at room temperature. Assay samples were then rapidly filtered through Unifilter-96 GF/B PEI coated filter plates using a filter plate harvester (PerkinElmer) and rinsed with ice-cold wash buffer [25 mM (4-(2-hydroxyethyl)-1-piperazineethanesulfonic acid (HEPES), 1 mM MgCl2, 2.5 mM CaCl2, and 500 mM NaCl]. Filter plates were dried overnight at room temperature. Plates were then bottom-sealed prior to the addition of 50 μL/well Ultima Gold XR scintillation fluid (PerkinElmer 6013111). Plates were then top-sealed, incubated for 60 minutes at room temperature and then the amount of radioactivity present was determined by liquid scintillation counting on a Microbeta Trilux (PerkinElmer #2450-0060).
The raw data (expressed as counts per minute) were analyzed using ActivityBase (IDBS Data Management Software). […] Equilibrium dissociation constant for inhibitor of ligand and receptor interaction (Ki) values were then calculated from the IC50 values using the Cheng-Prusoff equation: Ki=IC50/(1+([L]/Kd)), where [L] is the concentration of the radioligand used in the experiment and Kd is the affinity of the radioligand (determined in separate saturation experiments).

Sequence of α-melanocyte-stimulating hormone receptor (hMC4R) (P32245 whole entry): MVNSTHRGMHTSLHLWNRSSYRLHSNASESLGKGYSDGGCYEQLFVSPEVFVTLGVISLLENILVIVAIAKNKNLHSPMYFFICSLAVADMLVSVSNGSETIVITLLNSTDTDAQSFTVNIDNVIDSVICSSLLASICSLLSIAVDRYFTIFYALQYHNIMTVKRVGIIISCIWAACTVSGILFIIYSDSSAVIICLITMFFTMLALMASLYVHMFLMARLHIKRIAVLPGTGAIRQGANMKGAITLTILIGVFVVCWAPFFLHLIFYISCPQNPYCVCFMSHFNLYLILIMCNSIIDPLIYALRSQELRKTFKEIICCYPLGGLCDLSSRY

First: COc1cc([C@@H](C)C(=O)N2CC[C@@]3(CCc4cc(-c5ccc(C(F)F)cn5)c(C)nc4N3)C2)c(F)cn1 [Example 179, (2R)-1-{(2S)-6-[5-(difluoromethyl)pyridin-2-yl]-7-methyl-3,4-dihydro-1H-spiro[1,8-naphthyridine-2,3′-pyrrolidin]-1′-yl}-2-(5-fluoro-2-methoxypyridin-4-yl)propan-1-one]
Second: COc1cc([C@@H](C)C(=O)N2CC[C@@]3(CCc4cc(-c5ccc(F)cn5)c(C)nc4N3)C2)c(F)cn1 [Example 139, (2R)-2-(5-fluoro-2-methoxypyridin-4-yl)-1-[(2S)-6-(5-fluoropyridin-2-yl)-7-methyl-3,4-dihydro-1H-spiro[1,8-naphthyridine-2,3′-pyrrolidin]-1′-yl]propan-1-one]
The Ki of the first is 1.6-fold higher: 21 nM for the first, 13 nM for the second.

`COc1cc([C@@H](C)C(=O)N2CC[C@@]3(CCc4cc(-c5cnn(C)c5)c(C)nc4N3)C2)c(Cl)cn1` (single isomer, unassigned) [Example 104] and `COc1cc([C@@H](C)C(=O)N2CC[C@@]3(CCc4cc(-c5nc(C(F)F)n(C)n5)c(C)nc4N3)C2)c(Cl)cn1` [Example 120, (2R)-2-(5-chloro-2-methoxypyridin-4-yl)-1-{(2S)-6-[5-(difluoromethyl)-1-methyl-1H-1,2,4-triazol-3-yl]-7-methyl-3,4-dihydro-1H-spiro[1,8-naphthyridine-2,3′-pyrrolidin]-1′-yl}propan-1-one] are within 1.5-fold of each other in Ki: 0.48 nM for the first, 0.4 nM for the second.

`COc1cc([C@@H](C)C(=O)N2CC[C@@]3(CCc4cc(-c5ccnc(N6CCOCC6)n5)c(C)nc4N3)C2)c(F)cn1` [Example 196, (2R)-2-(5-fluoro-2-methoxypyridin-4-yl)-1-{(2S)-7-methyl-6-[2-(morpholin-4-yl)pyrimidin-4-yl]-3,4-dihydro-1H-spiro[1,8-naphthyridine-2,3′-pyrrolidin]-1′-yl}propan-1-one] and `COc1cc([C@@H](C)C(=O)N2CC[C@@]3(CCc4cc(-c5cncc(C)n5)c(C)nc4N3)C2)c(F)cn1` [Example 156, (2R)-2-(5-fluoro-2-methoxypyridin-4-yl)-1-[(2S)-7-methyl-6-(6-methylpyrazin-2-yl)-3,4-dihydro-1H-spiro[1,8-naphthyridine-2,3′-pyrrolidin]-1′-yl]propan-1-one] are within 1.5-fold of each other in Ki: 8.1 nM for the first, 5.9 nM for the second.

First: COc1cc([C@@H](C)C(=O)N2CC[C@@]3(CCc4cc(-c5cccc(-c6cnco6)c5)c(C)nc4N3)C2)c(F)cn1 [Example 173, (2R)-2-(5-fluoro-2-methoxypyridin-4-yl)-1-{(2S)-7-methyl-6-[3-(1,3-oxazol-5-yl)phenyl]-3,4-dihydro-1H-spiro[1,8-naphthyridine-2,3′-pyrrolidin]-1′-yl}propan-1-one]
Second: COc1cc([C@@H](C)C(=O)N2CC[C@@]3(CCc4cc(-c5cc(C)ns5)c(C)nc4N3)C2)c(F)cn1 [Example 176, (2R)-2-(5-fluoro-2-methoxypyridin-4-yl)-1-[(2S)-7-methyl-6-(3-methyl-1,2-thiazol-5-yl)-3,4-dihydro-1H-spiro[1,8-naphthyridine-2,3′-pyrrolidin]-1′-yl]propan-1-one]
The Ki of the first is 3.3-fold higher: 85 nM for the first, 26 nM for the second.

First: COc1cc([C@@H](C)C(=O)N2CC[C@@]3(CCc4cc(-c5nccnc5C)c(C)nc4N3)C2)c(F)cn1 [Example 164, (2R)-2-(5-fluoro-2-methoxypyridin-4-yl)-1-[(2S)-7-methyl-6-(3-methylpyrazin-2-yl)-3,4-dihydro-1H-spiro[1,8-naphthyridine-2,3′-pyrrolidin]-1′-yl]propan-1-one]
Second: COc1cc([C@@H](C)C(=O)N2CC[C@@]3(CCc4cc(-c5cnn6cccnc56)c(C)nc4N3)C2)c(F)cn1 [Example 154, (2R)-2-(5-fluoro-2-methoxypyridin-4-yl)-1-[(2S)-7-methyl-6-(pyrazolo[1,5-a]pyrimidin-3-yl)-3,4-dihydro-1H-spiro[1,8-naphthyridine-2,3′-pyrrolidin]-1′-yl]propan-1-one]
The Ki of the first is 25-fold higher: 18 nM for the first, 0.72 nM for the second. The second binds more tightly here.

`COc1cc([C@@H](C)C(=O)N2CC[C@@]3(CCc4cc(-c5ccc(C6CC6)nn5)c(C)nc4N3)C2)c(F)cn1` [Example 199, (2R)-1-[(2S)-6-(6-cyclopropylpyridazin-3-yl)-7-methyl-3,4-dihydro-1H-spiro[1,8-naphthyridine-2,3′-pyrrolidin]-1′-yl]-2-(5-fluoro-2-methoxypyridin-4-yl)propan-1-one] and `COc1cc([C@@H](C)C(=O)N2CC[C@@]3(CCc4cc(-c5ccc(C6CC6)cn5)c(C)nc4N3)C2)c(F)cn1` [Example 186, (2R)-1-[(2S)-6-(5-cyclopropylpyridin-2-yl)-7-methyl-3,4-dihydro-1H-spiro[1,8-naphthyridine-2,3′-pyrrolidin]-1′-yl]-2-(5-fluoro-2-methoxypyridin-4-yl)propan-1-one] are within 1.5-fold of each other in Ki: 15 nM for the first, 19 nM for the second.

Compared with `COc1cc([C@@H](C)C(=O)N2CC[C@@]3(CCc4cc(-c5nc(C(F)F)n(C)n5)c(C)nc4N3)C2)nc(C)n1` (single isomer, unassigned) [Example 123], `COc1cc([C@@H](C)C(=O)N2CC[C@@]3(CCc4cc(-c5nc(C(F)F)n(C)n5)c(C)nc4N3)C2)c(F)cn1` [Example 122, (2R)-1-{(2S)-6-[5-(difluoromethyl)-1-methyl-1H-1,2,4-triazol-3-yl]-7-methyl-3,4-dihydro-1H-spiro[1,8-naphthyridine-2,3′-pyrrolidin]-1′-yl}-2-(5-fluoro-2-methoxypyridin-4-yl)propan-1-one] is 2.2-fold higher in Ki: 0.22 nM for the first, 0.49 nM for the second. The first binds more tightly here.

Going from `COc1cc([C@@H](C)C(=O)N2CC[C@@]3(CCc4cc(-c5ncc(C(F)(F)F)s5)c(C)nc4N3)C2)c(F)cn1` [Example 201, (2R)-2-(5-fluoro-2-methoxypyridin-4-yl)-1-{(2S)-7-methyl-6-[5-(trifluoromethyl)-1,3-thiazol-2-yl]-3,4-dihydro-1H-spiro[1,8-naphthyridine-2,3′-pyrrolidin]-1′-yl}propan-1-one] to `COc1cc([C@@H](C)C(=O)N2CC[C@@]3(CCc4cc(-c5nc(C(F)F)n(C6CC6)n5)c(C)nc4N3)C2)c(F)cn1` [Example 189, (2R)-1-{(2S)-6-[1-cyclopropyl-5-(difluoromethyl)-1H-1,2,4-triazol-3-yl]-7-methyl-3,4-dihydro-1H-spiro[1,8-naphthyridine-2,3′-pyrrolidin]-1′-yl}-2-(5-fluoro-2-methoxypyridin-4-yl)propan-1-one], the Ki falls from 110 nM to 1.3 nM (85-fold). The second binds more tightly here.

same assay, conditions: geometric mean, read-out: Ki (nM) geometric mean

Going from `COc1cc([C@@H](C)C(=O)N2CC[C@@]3(CCc4cc(-c5nc(C(F)(F)F)ccc5F)c(C)nc4N3)C2)c(F)cn1` [Example 69, (2R)-2-(5-fluoro-2-methoxypyridin-4-yl)-1-{(2S)-6-[3-fluoro-6-(trifluoromethyl)pyridin-2-yl]-7-methyl-3,4-dihydro-1H-spiro[1,8-naphthyridine-2,3′-pyrrolidin]-1′-yl}propan-1-one] to `COc1cc([C@@H](C)C(=O)N2CC[C@@]3(CCc4cc(-c5ncc(C(F)(F)F)cc5F)c(C)nc4N3)C2)c(F)cn1` [Example 68, (2R)-2-(5-fluoro-2-methoxypyridin-4-yl)-1-{(2S)-6-[3-fluoro-5-(trifluoromethyl)pyridin-2-yl]-7-methyl-3,4-dihydro-1H-spiro[1,8-naphthyridine-2,3′-pyrrolidin]-1′-yl}propan-1-one], the Ki rises from 5.1 nM to 35 nM (6.9-fold).

`COc1cc([C@@H](C)C(=O)N2CC[C@@]3(CCc4cc(-c5ncccn5)c(C)nc4N3)C2)c(C(F)(F)F)cn1` (single isomer, unassigned) [Example 40] and `COc1cc([C@H](C)C(=O)N2CC[C@@]3(CCc4cc(-c5ncccn5)c(C)nc4N3)C2)c(F)cn1` [Example 28, (2S)-2-(5-fluoro-2-methoxypyridin-4-yl)-1-[(2S)-7-methyl-6-(pyrimidin-2-yl)-3,4-dihydro-1H-spiro[1,8-naphthyridine-2,3′-pyrrolidin]-1′-yl]propan-1-one] are within 1.5-fold of each other in Ki: 150 nM for the first, 160 nM for the second.

Compared with `Cc1nc(OC(F)F)cc([C@@H](C)C(=O)N2CC[C@@]3(CCc4cc(-c5ncccn5)c(C)nc4N3)C2)n1` (single isomer, unassigned) [Example 44], `COc1cnc(-c2cc3c(nc2C)N[C@@]2(CC3)CCN(C(=O)[C@H](C)c3cc(OC)ncc3F)C2)nc1` [Example 67, (2R)-2-(5-fluoro-2-methoxypyridin-4-yl)-1-[(2S)-6-(5-methoxypyrimidin-2-yl)-7-methyl-3,4-dihydro-1H-spiro[1,8-naphthyridine-2,3′-pyrrolidin]-1′-yl]propan-1-one] is 22-fold lower in Ki: 54 nM for the first, 2.5 nM for the second. The second binds more tightly here.

Compound `COc1cc([C@@H](C)C(=O)N2CC[C@@]3(CCc4ccc(C)nc4N3)C2)c(F)cn1` (single isomer, unassigned) [Example 98] has a Ki of 2.8 nM.
